Assay results taken from ChEMBL document CHEMBL3046260, “Synthesis of benzo[b][1,4]oxazin-3(4H)-ones via smiles rearrangement for antimicrobial activity” (2011).
Values after ≈ are worked out from the molar mass of the structure shown. Active and inactive are the calls of the source. No cut-off for these calls is given here.

Tests used:
[1] = test system: Bacillus spizizenii; assay: Antimicrobial activity against Bacillus subtilis subsp. spizizenii ATCC 6633 after 24 hr by two-fold serial dilution method; assay type: functional; conditions: ATCC 6633, 24 h
[2] = test system: Proteus vulgaris; assay: Microbiostatic activity against Proteus vulgaris ATCC 6896 after 24 hr
[3] = test system: Pseudomonas aeruginosa; assay: Microbiostatic activity against Pseudomonas aeruginosa ATCC 27853 after 24 hr
[4] = test system: Staphylococcus aureus; assay: Microbiostatic activity against Staphylococcus aureus ATCC 25923 after 24 hr
[5] = test system: Pseudomonas aeruginosa; assay: Antimicrobial activity against Pseudomonas aeruginosa ATCC 27853 after 24 hr by two-fold serial dilution method; assay type: functional; conditions: ATCC 27853, 24 h
[6] = test system: Escherichia coli; assay: Microbiostatic activity against Escherichia coli ATCC 25922 after […]; assay type: functional, organism-based
[7] = test system: Bacillus spizizenii; assay: Microbiostatic activity against Bacillus subtilis subsp. spizizenii ATCC 6633 after 24 hr
[8] = test system: Candida albicans; assay: Microbiostatic activity against Candida albicans ATCC 76615; assay type: functional, organism-based
[9] = test system: Proteus vulgaris; assay: Antimicrobial activity against Proteus vulgaris ATCC 6896 after 24 hr by two-fold serial dilution method; assay type: functional; conditions: ATCC 6896, 24 h
[10] = test system: Escherichia coli; assay: Antimicrobial activity against Escherichia coli ATCC 25922 after 24 hr by two-fold serial dilution method; assay type: functional; conditions: ATCC 25922, 24 h
[11] = test system: Staphylococcus aureus; assay: Antimicrobial activity against Staphylococcus aureus ATCC 25923 after 24 hr by two-fold serial dilution method; assay type: functional; conditions: ATCC 25923, 24 h
[12] = test system: Aspergillus flavus; assay: Antimicrobial activity against Aspergillus flavus ATCC 10124 after 48 hr by two-foldserial dilution method; assay type: functional; conditions: ATCC 10124, 48 h
[13] = test system: Aspergillus flavus; assay: Microbiostatic activity against Aspergillus flavus ATCC 10124; assay type: functional, organism-based
[14] = test system: Candida albicans; assay: Antimicrobial activity against Candida albicans ATCC 76615 after 48 hr by two-fold serial dilution method; assay type: functional; conditions: ATCC 76615, 48 h

Row | SMILES | MIC [1] | Activity [2] | Activity [3] | Activity [4] | MIC [5] | Activity [6] | Activity [7] | Activity [8] | MIC [9] | MIC [10] | MIC [11] | MIC [12] | Activity [13] | MIC [14]
1 | O=C1COc2cc(Cl)ccc2N1Cc1ccccc1 | 32 µg/mL (≈ 117 µM) | Active | Active | Active | 16 µg/mL (≈ 58.5 µM) | Active | Active | Active | 64 µg/mL (≈ 234 µM) | 64 µg/mL (≈ 234 µM) | 64 µg/mL (≈ 234 µM) | 128 µg/mL (≈ 468 µM) | Active | 128 µg/mL (≈ 468 µM)
2 | O=C1COc2ccc(Cl)cc2N1C1CCCCC1 | 32 µg/mL (≈ 120 µM) | Active | Active | Active | 64 µg/mL (≈ 241 µM) | Active | Active | Active | 16 µg/mL (≈ 60.2 µM) | 128 µg/mL (≈ 482 µM) | 128 µg/mL (≈ 482 µM) | 32 µg/mL (≈ 120 µM) | Active | 32 µg/mL (≈ 120 µM)
3 | O=C1COc2cc(Cl)ccc2N1CCc1ccccc1 | 64 µg/mL (≈ 222 µM) | Active | Active | Active | 16 µg/mL (≈ 55.6 µM) | Active | Active | Active | 16 µg/mL (≈ 55.6 µM) | 32 µg/mL (≈ 111 µM) | 64 µg/mL (≈ 222 µM) | – | Active | 128 µg/mL (≈ 445 µM)
4 | CC(C)(O/N=C(\C(=O)N[C@@H]1C(=O)N2C(C(=O)[O-])=C(C[n+]3ccccc3)CS[C@H]12)c1csc(N)n1)C(=O)O [CEFTAZIDIME] | 2 µg/mL (≈ 3.66 µM) | Active | Active | Active | 128 µg/mL (≈ 234 µM) | Active | Active | Active | 4 µg/mL (≈ 7.32 µM) | 4 µg/mL (≈ 7.32 µM) | 4 µg/mL (≈ 7.32 µM) | – | Active | –
5 | CN[C@@H]1[C@H](O[C@H]2[C@H](O[C@H]3[C@H](O)[C@@H](O)[C@H](N=C(N)N)[C@@H](O)[C@@H]3N=C(N)N)O[C@@H](C)[C@]2(O)C=O)O[C@@H](CO)[C@H](O)[C@H]1O [STREPTOMYCIN] | 32 µg/mL (≈ 55 µM) | Active | Active | Active | 2 µg/mL (≈ 3.44 µM) | Active | Active | Active | 4 µg/mL (≈ 6.88 µM) | 4 µg/mL (≈ 6.88 µM) | 2 µg/mL (≈ 3.44 µM) | – | Active | –
6 | O=C1COc2cc(Br)ccc2N1Cc1ccccc1 | 32 µg/mL (≈ 101 µM) | Active | Active | Active | 16 µg/mL (≈ 50.3 µM) | Active | Active | Active | 32 µg/mL (≈ 101 µM) | 32 µg/mL (≈ 101 µM) | 32 µg/mL (≈ 101 µM) | 128 µg/mL (≈ 402 µM) | Active | 128 µg/mL (≈ 402 µM)
7 | O=C1COc2cc(F)ccc2N1Cc1ccccc1 | 32 µg/mL (≈ 124 µM) | Active | Active | Active | 16 µg/mL (≈ 62.2 µM) | Active | Active | Active | 32 µg/mL (≈ 124 µM) | 16 µg/mL (≈ 62.2 µM) | 64 µg/mL (≈ 249 µM) | 128 µg/mL (≈ 498 µM) | Active | 256 µg/mL (≈ 995 µM)
8 | O=C1COc2cc(F)ccc2N1C1CCCCC1 | 32 µg/mL (≈ 128 µM) | Active | Active | Active | 16 µg/mL (≈ 64.2 µM) | Active | Active | Active | 16 µg/mL (≈ 64.2 µM) | 16 µg/mL (≈ 64.2 µM) | 16 µg/mL (≈ 64.2 µM) | 64 µg/mL (≈ 257 µM) | Active | 256 µg/mL (≈ 1030 µM)
9 | O=C1COc2cc(Cl)ccc2N1C1CCCCC1 | 64 µg/mL (≈ 241 µM) | Active | Active | Active | 32 µg/mL (≈ 120 µM) | Active | Active | Active | 64 µg/mL (≈ 241 µM) | 32 µg/mL (≈ 120 µM) | 64 µg/mL (≈ 241 µM) | 128 µg/mL (≈ 482 µM) | Active | 256 µg/mL (≈ 963 µM)
10 | CCCCCCN1C(=O)COc2cc(Br)ccc21 | 32 µg/mL (≈ 102 µM) | Active | Active | Active | 32 µg/mL (≈ 102 µM) | Active | Active | Active | 16 µg/mL (≈ 51.2 µM) | 32 µg/mL (≈ 102 µM) | 32 µg/mL (≈ 102 µM) | – | Active | 128 µg/mL (≈ 410 µM)
